Experimental data as given in ChEMBL document CHEMBL5528071, “Discovery of Novel Steroid-Based Histamine H3 Receptor Antagonists/Inverse Agonists” (J Med Chem, 2024).

Assays:
[1] = Displacement of [3H]quinuclidinyl benzilate from Wistar rat cerebral cortex membrane muscarinic AChR assessed as inhibition constant by liquid scintillation counter
[2] = biological target: Voltage-gated inwardly rectifying potassium channel KCNH2 (Homo sapiens, UniProt Q12809); experiment: Inhibition of human ERG expressed in CHO cells incubated for 7 to 10 mins by automated whole-cell patch clamp recordings; type: toxicity, cell-based
[3] = In vivo antagonist activity at Histamine H3 receptor in Wistar rat assessed as reduction in imetit-induced water intake pretreated with compound for 30 mins followed by imetit administration and measured after 30 mins by dipsogenia test; type: functional; details: 1 h, time 60 min
Histamine H3 receptor [4] = biological target: T1, Histamine H3 receptor (Homo sapiens, UniProt Q9Y5N1)
Description: Displacement of N-alpha-[methyl-3H]methylhistamine dihydrochloride from human Histamine H3 receptor expressed in CHO-K1 cell membrane assessed as inhibition constant incubated for 30 mins by liquid scintillation analyzer

Histamine H3 receptor [5] = biological target: Histamine H3 receptor (Rattus norvegicus, UniProt Q9QYN8)
Description: Displacement of N-alpha-[methyl-3H]-methylhistamine dihydrochloride from Sprague-Dawley rat cerebral cortex membrane Histamine H3 receptor assessed as inhibition constant incubated for 30 mins by scintillation counter

Histamine H3 receptor [6] = biological target: T1, Histamine H3 receptor; experiment: Antagonist activity at human Histamine H3 receptor
Rattus norvegicus [7] = organism: Rattus norvegicus; experiment: Displacement of [3H]quinuclidinyl benzilate from Wistar rat cerebral cortex membrane muscarinic AChR at 1 uM by liquid scintillation counter relative to control; type: cell membranes
hERG (KCNH2) [8] = biological target: T2, hERG (KCNH2) (Homo sapiens, UniProt Q12809); experiment: Inhibition of human ERG expressed in CHO cells at 1 uM incubated for 7 to 10 mins by automated whole-cell patch clamp recordings relative to control; details: CHO cells expressing human ERG
hERG (KCNH2) [9] = biological target: T2, hERG (KCNH2); experiment: Inhibition of human ERG expressed in CHO cells at 3 uM incubated for 7 to 10 mins by automated whole-cell patch clamp recordings relative to control; details: CHO cells expressing human ERG
Mus musculus = experiment: Cognitive enhancing effect in scopolamine-induced NMRI mouse model assessed as reversal of exploration time by measuring minimum effective dose preadministered orally for 30 mins followed by scopolamine administration by place recognition test; type: functional; details: 0.5 h, route po, read-out: MED
[10] = Bioavailability in Wistar rat at 10 mg/kg, po or 3 mg/kg, iv measured after 24 hrs by HPLC-MS/MS analysis; type: ADME, organism-based; details: in vivo
[11] = Ratio of drug concentration in Hannover Wistar rat brain to plasma administered orally for 2 days and measured 1 hrs post last dose by HPLC-MS/MS analysis; type: ADME; details: route po, read-out: BPR
Rattus norvegicus [12] = experiment: Cognitive enhancing effect in Hannover Wistar rat model of delay-induced natural forgetting assessed as reversal of exploration time by measuring minimal effective dose orally administered for 30 mins by novel object recognition test; type: functional; details: 0.5 h, route po, read-out: MED

Chain of Voltage-gated inwardly rectifying potassium channel KCNH2 (Q12809 whole entry): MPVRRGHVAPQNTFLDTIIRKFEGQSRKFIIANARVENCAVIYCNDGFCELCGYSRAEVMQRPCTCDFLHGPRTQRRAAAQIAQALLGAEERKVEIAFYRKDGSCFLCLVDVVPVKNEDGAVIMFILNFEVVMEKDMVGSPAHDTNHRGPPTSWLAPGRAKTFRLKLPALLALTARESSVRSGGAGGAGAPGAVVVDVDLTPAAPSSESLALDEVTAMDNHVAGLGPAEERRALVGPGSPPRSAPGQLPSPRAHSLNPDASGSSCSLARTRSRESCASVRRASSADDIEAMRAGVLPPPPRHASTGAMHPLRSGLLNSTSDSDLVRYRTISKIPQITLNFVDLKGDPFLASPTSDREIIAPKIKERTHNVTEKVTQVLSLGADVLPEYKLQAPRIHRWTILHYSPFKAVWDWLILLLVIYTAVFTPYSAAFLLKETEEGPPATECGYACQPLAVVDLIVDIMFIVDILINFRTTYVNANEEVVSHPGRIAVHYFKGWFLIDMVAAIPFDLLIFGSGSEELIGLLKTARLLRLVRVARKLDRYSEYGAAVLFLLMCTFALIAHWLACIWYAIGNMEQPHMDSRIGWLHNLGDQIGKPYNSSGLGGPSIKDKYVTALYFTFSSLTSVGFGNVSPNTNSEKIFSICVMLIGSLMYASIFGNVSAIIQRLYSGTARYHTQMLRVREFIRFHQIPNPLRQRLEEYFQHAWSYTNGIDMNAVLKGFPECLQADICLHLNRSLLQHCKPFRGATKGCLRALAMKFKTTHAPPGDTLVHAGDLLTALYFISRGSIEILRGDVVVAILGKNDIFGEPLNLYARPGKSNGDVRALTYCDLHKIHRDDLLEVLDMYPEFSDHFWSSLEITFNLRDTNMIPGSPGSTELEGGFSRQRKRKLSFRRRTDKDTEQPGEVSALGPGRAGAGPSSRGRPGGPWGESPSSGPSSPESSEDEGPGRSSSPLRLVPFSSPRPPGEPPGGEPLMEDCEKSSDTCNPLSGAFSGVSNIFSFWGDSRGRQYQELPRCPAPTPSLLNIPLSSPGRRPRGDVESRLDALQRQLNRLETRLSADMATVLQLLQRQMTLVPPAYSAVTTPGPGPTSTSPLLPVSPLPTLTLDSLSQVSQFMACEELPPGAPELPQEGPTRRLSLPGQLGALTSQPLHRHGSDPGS
T1 sequence (Q9Y5N1 whole entry): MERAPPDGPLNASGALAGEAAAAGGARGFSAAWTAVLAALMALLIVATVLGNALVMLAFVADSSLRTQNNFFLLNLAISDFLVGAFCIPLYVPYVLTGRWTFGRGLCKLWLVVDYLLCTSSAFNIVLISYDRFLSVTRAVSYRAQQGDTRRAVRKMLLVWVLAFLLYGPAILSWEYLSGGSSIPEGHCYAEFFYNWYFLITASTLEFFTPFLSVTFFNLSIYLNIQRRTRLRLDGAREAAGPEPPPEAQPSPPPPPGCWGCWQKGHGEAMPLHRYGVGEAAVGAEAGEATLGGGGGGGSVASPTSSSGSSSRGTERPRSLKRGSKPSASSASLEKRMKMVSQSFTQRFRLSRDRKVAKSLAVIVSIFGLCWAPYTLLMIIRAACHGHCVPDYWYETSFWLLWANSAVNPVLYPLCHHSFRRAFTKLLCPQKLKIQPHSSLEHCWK
Chain of Histamine H3 receptor (Rattus norvegicus, UniProt Q9QYN8) (Q9QYN8 whole entry): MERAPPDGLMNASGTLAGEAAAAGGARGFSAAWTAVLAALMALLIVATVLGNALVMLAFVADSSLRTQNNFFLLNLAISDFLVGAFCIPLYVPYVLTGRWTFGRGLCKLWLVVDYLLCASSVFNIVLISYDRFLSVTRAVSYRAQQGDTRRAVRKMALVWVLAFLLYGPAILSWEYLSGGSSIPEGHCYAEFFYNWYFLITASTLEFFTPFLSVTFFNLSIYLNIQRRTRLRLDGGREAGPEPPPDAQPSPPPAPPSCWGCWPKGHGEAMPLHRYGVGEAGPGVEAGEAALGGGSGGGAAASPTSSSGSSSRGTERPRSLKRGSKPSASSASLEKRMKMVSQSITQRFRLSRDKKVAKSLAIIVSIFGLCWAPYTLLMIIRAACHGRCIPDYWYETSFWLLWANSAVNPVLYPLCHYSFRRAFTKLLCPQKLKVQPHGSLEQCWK
T2 sequence (Q12809 whole entry): as the sequence (Q12809 whole entry) above

Ki (Histamine H3 receptor [4]) [nM] | Ki (Histamine H3 receptor [5]) [nM] | SMILES | IC50 [2] [nM] | ED50 [3] [mg/kg] | also measured
2.4 | 9.9 | C[C@@H]1CCCN1CCCOc1ccc2c(c1)CC[C@H]1[C@H]3[C@@H]4C[C@@H]4C(=O)N[C@@]3(C)CC[C@H]21 | 5000 | 0.33 | Ki [1]: 3600 nM
 |  | NC(=O)c1ccc([C@@H]2C[C@H]2C(=O)N2CCN(C3CCC3)CC2)cc1 |  |  | Ki (Histamine H3 receptor [6]): 0.501 nM
4.9 | 9.4 | C[C@@H]1CCCN1CCCOc1ccc2c(c1)CC[C@H]1[C@@H]3[C@@H]4C[C@@H]4C(=O)N[C@@]3(C)CC[C@H]21 | 11700 | 1.5 | 
 |  | C[C@@H]1CCCN1CCCOc1ccc2c(c1)CC[C@@H]1[C@@H]2CC[C@@]2(C)NC(=O)CC[C@@H]12 | > 30000 |  | 
1.5 | 30.2 | C[C@]12CC[C@@H]3c4ccc(OCCCN5CCCC5)cc4CC[C@H]3[C@@H]1CCCN2 |  |  | Activity (Rattus norvegicus [7]): 36%
8 | 37.3 | CCC(=O)N1CCC[C@H]2[C@@H]3CCc4cc(OCCCN5CCC[C@H]5C)ccc4[C@H]3CC[C@@]21C | > 10000 |  | Ki [1]: 1700 nM
2.2 | 24.8 | C[C@@H]1CC(=O)N[C@@]2(C)CC[C@@H]3c4ccc(OCCCN5CCC[C@H]5C)cc4CC[C@H]3[C@H]12 | 11000 | 1.3 | Ki [1]: 2500 nM
 |  | C[C@@H]1CCCN1CCCOc1ccc2c(c1)CC[C@@H]1[C@@H]2CC[C@]2(C)NC(=O)CC[C@@H]12 | 3700 |  | 
4.1 | 9 | C[C@@H]1C[C@H]2[C@@H]3CCc4cc(OCCCN5CCC[C@H]5C)ccc4[C@H]3CC[C@]2(C)NC1=O | 14500 | 0.86 | Ki [1]: 2700 nM
11.6 |  | C[C@@H]1CCCN1CCCOc1ccc2c(c1)CC[C@@H]1[C@@H]2CC[C@@]2(C)[C@H]1CCCN2C(=O)c1ccccc1 |  |  | 
8.6 | 20.5 | C[C@@H]1CCCN1CCCOc1ccc2c(c1)CC[C@H]1[C@@H]3[C@H](C#N)CC(=O)N[C@@]3(C)CC[C@H]21 | 24000 | 3.6 | Ki [1]: 2400 nM
 |  | C[C@@H]1CCCN1CCCOc1ccc2c(c1)CC[C@@H]1[C@@H]2CC[C@@]2(C)[C@@H]1CCC(=O)N2C | 9600 | 0.23 | 
 | 96 | C[C@@H]1CCCN1CCCOc1ccc2c(c1)CC[C@@H]1[C@@H]2CC[C@@]2(C)[C@H]1CCCN2C(=O)C1CCOC1 (some centres not stated) |  |  | 
1.1 | 5.7 | C[C@@H]1CCCN1CCCOc1ccc2c(c1)CC[C@H]1C3=CCC(=O)N(C)[C@@]3(C)CC[C@H]21 | 8600 | 0.22 | Ki [1]: 1500 nM
7.8 | 55.2 | C[C@@H]1CCCN1CCCOc1ccc2c(c1)CC[C@@H]1[C@@H]2CC[C@@]2(C)[C@H]1CCCN2C(=O)C(C)(C)C |  |  | Ki [1]: 816 nM
1.5 | 3.8 | C[C@@H]1C[C@@H]2[C@@H]3CCc4cc(OCCCN5CCC[C@H]5C)ccc4[C@H]3CC[C@]2(C)N(C)C1=O | 2700 |  | 
10.6 |  | CN1CCC[C@H]2[C@@H]3CC[C@H]4C[C@@H](OC(=O)CCN5CCCC5)CC[C@]4(C)[C@H]3CC[C@@]21C |  |  | Activity (Rattus norvegicus [7]): 44%
2.4 | 2.2 | C[C@@H]1CC(=O)N(C)[C@@]2(C)CC[C@@H]3c4ccc(OCCCN5CCC[C@H]5C)cc4CC[C@H]3[C@H]12 | 8800 | 0.48 | 
0.9 | 5.1 | CN1CCC[C@H]2[C@@H]3CCc4cc(OCCCN5CCCC5)ccc4[C@H]3CC[C@@]21C |  |  | Activity (Rattus norvegicus [7]): 69%
15.1 | 14.5 | CC(=O)N[C@]12CCC(=O)N[C@@]1(C)CC[C@@H]1c3ccc(OCCCN4CCC[C@H]4C)cc3CC[C@H]12 |  |  | inhibition at 1 µM (hERG (KCNH2) [8]): 3%; inhibition at 3 µM (hERG (KCNH2) [9]): 8%
3.4 | 10.5 | C[C@]12CC[C@@H]3c4ccc(OCCCN5CCCC5)cc4CC[C@H]3[C@@H]1CCCN2CCO |  |  | 
2 | 7.2 | C[C@@H]1CCCN1CCCOc1ccc2c(c1)CC[C@H]1[C@@H]3[C@H](C#N)CC(=O)N(C)[C@@]3(C)CC[C@H]21 | 10400 | 0.78 | 
 | 6.8 | C[C@@H]1CCCN1CCCOc1ccc2c(c1)CC[C@H]1C3=CCC(=O)N[C@@]3(C)CC[C@H]21 | 18700 | 0.12 | minimal effective dose (Mus musculus): 0.3 mg/kg; bioavailability [10]: 63.8%; Kp at 49 h [11]: 0.6
 |  | C[C@@H]1CCCN1CCCOc1ccc2c(c1)CC[C@@H]1[C@@H]2CC[C@@]2(C)[C@H]1CCC(=O)N2C | 9900 | 0.4 | minimal effective dose (Mus musculus): 0.1 mg/kg; minimal effective dose (Rattus norvegicus [12]): 0.3 mg/kg; bioavailability [10]: 63.7%; Kp at 49 h [11]: 1.4
6.9 | 15.9 | CC(=O)N1CCC[C@H]2[C@@H]3CCc4cc(OCCCN5CCC[C@H]5C)ccc4[C@H]3CC[C@@]21C | 10000 |  | 
 |  | C[C@@H]1CCCN1CCCOc1ccc2c(c1)CC[C@@H]1[C@@H]2CC[C@]2(C)NC(=O)CC[C@H]12 | 22000 |  | 
1.8 | 21.8 | C[C@]12CC[C@@H]3c4ccc(OCCCN5CCCC5)cc4CC[C@H]3[C@@H]1CCCN2C=O | 6000 |  | Activity (Rattus norvegicus [7]): 13%
1 | 3.3 | C[C@@H]1CCCN1CCCOc1ccc2c(c1)CC[C@H]1[C@@H]3[C@@H]4C[C@@H]4C(=O)N(C)[C@@]3(C)CC[C@H]21 | 7700 | 1.4 | 
